Assay results published in patent EP1614683B1, “Indazole compounds and pharmaceutical compositions for inhibiting protein kinases, and methods for their use” (priority 1999, dated 2001).
pIC50: −log10 of the molar value. Like-named read-outs stand apart in the source and are kept apart here.

Legend:
in vitro = in vitro ADME, human
Experimental: Compound metabolism in human liver microsomes was measured by LC-MS analytical assay procedures as follows. First, human liver microsomes (HLM) were thawed and diluted to 5 mg/mL with cold 100 mM potassium phosphate (KPO4) buffer. Appropriate amounts of KPO4 buffer, NADPH-regenerating solution (containing B-NADP, glucose-6-phosphate, glucose-6-phosphate dehydrogenase, and MgCl2), and HLM were preincubated in 13 x 100 mm glass tubes at 37 C for 10 min. (3 tubes per test compound--triplicate). Test compound (5 µM final) was added to each tube to initiate reaction and was mixed by gentle vortexing, followed by incubation at 37 °C. At t=0, 2 h, a 250-µL sample was removed from each incubation tube to separate 12 x 75 mm glass tubes containing 1 mL ice-cold acetonitrile with 0.05 µM reserpine. […] Supernatant was transferred to new 12 x 75 mm glass tubes and evaporated by Speed-Vac centrifugal vacuum evaporator. Samples were reconstituted in 200 µL 0.1 % formic acid/acetonitrile (90/10) and vortexed vigorously to dissolve. The samples were then transferred to separate polypropylene microcentrifuge tubes and centrifuged at 14000 x g for 10 min. (Fisher Micro 14, S/N M0017580). For each replicate (#1-3) at each timepoint (0 and 2 h), an aliquot sample of each test compound was combined into a single HPLC vial insert (6 total samples) for LC-MS analysis, which is described below.

LCK tyrosine kinase = LCK tyrosine kinase (Homo sapiens, UniProt P06239, C224D/P223M); assay: LCK spectrophotometric assay; type: biochemical; conditions: Table 1; compound concentration 1 µM; read-out: Lck-P* (% inhibition)
LCK tyrosine kinase, sequence (P06239 223-509 P223M/C224D): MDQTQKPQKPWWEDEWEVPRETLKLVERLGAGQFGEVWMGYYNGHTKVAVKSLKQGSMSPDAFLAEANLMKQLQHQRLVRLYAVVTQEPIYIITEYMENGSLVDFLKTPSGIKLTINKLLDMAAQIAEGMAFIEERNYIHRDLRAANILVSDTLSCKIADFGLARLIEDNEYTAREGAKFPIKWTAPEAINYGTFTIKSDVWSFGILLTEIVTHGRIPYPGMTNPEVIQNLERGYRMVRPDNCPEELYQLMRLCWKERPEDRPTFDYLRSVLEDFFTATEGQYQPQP
Experimental: The spectrophotometric assay was carried out as described above for VEGF-R2, except for the following changes in concentration: LCK = 60 nM, MgCl2 = 0 mM, poly(E4Y1) = 20 mM.

[1] = test system: human umbilical vein endothelial cells (HUVEC); assay: HUVEC proliferation assay (VEGF-stimulated, MTT); type: cell-based; conditions: Table 1
Experimental: This assay determines the ability of a test compound to inhibit the growth factor-stimulated proliferation of human umbilical vein endothelial cells ("HUVEC"). HUVEC cells (passage 3-4, Clonetics, Corp.) were thawed into EGM2 culture medium (Clonetics Corp) in T75 flasks. Fresh EGM2 medium was added to the flasks 24 hours later. Four or five days later, cells were exposed to another culture medium (F12K medium supplemented with 10% fetal bovine serum (FBS), 60 µg/mL endothelial cell growth supplement (ECGS), and 0.1 mg/mL heparin). Exponentially-growing HUVEC cells were used in experiments thereafter. Ten to twelve thousand HUVEC cells were plated in 96-well dishes in 100 µl of rich, culture medium (described above). The cells were allowed to attach for 24 hours in this medium. The medium was then removed by aspiration and 105 µl of starvation media (F12K+1% FBS) was added to each well. After 24 hours, 15 µl of test agent dissolved in 1% DMSO in starvation medium or this vehicle alone was added into each treatment well; the final DMSO concentration was 0.1%. One hour later, 30 µl of VEGF (30 ng/mL) in starvation media was added to all wells except those containing untreated controls; the final VEGF concentration was 6 ng/mL. Cellular proliferation was quantified 72 hours later by MTT dye reduction, at which time cells were exposed for 4 hours MTT (Promega Corp.).

human FGF-R1 = human FGF-R1 (Homo sapiens, UniProt P11362, C488A/C584S/L457V); assay: FGF-R spectrophotometric assay; type: biochemical; conditions: Table 1; compound concentration 1 µM; read-out: FGF-P* (% inhibition)
human FGF-R1, sequence (P11362 456-766 L457V/C488A/C584S): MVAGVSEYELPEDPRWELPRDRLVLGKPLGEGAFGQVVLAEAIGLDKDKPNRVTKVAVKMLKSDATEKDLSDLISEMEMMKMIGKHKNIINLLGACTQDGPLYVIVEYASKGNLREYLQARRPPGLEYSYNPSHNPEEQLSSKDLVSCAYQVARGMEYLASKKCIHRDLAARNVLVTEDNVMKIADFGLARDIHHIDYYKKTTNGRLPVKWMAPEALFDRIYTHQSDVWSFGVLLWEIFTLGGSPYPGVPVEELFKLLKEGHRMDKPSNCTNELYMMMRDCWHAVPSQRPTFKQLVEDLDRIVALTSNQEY
Experimental: The spectrophotometric assay was carried out as described above for VEGF-R2, except for the following changes in concentration: FGF-R = 50 nM, ATP = 2 mM, and poly(E4Y1) =15 mM.

[2] = biological target: unphosphorylated VEGF-R2Δ50 (Homo sapiens, UniProt P35968, DEL940-989/E990V); assay: biochemical; conditions: for inhibition at 0.05 µM: read-out: FLVK ** (% inhibition); for inhibition at 1 µM: read-out: FLVK* (% inhibition)
unphosphorylated VEGF-R2Δ50, sequence (P35968 with tags, fused parts or gaps DEL940-989/E990V limits assumed): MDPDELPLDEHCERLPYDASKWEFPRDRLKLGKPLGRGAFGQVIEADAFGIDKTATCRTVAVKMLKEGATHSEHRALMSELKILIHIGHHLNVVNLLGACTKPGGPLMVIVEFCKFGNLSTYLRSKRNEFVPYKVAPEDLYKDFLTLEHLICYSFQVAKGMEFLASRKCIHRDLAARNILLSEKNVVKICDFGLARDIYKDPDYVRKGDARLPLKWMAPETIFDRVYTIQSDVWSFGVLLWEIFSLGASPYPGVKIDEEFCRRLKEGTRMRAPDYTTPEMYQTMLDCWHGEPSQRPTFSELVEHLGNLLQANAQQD

[3] = Homo sapiens, HUVEC, + albumin, read-out: HUVEC + albumin IC50
[4] = Homo sapiens, HUVEC, read-out: HUVEC IC50
[5] = human liver microsomes, 5 µM test compound, 37 °C, 2 h

SMILES: CN(c1cccc(NC(=O)c2ccccc2)c1)c1ccc2c(/C=C/c3ccccc3)n[nH]c2c1 [12(b), N-{3-[Methyl-(3-styryl-1H-indazol-6-yl)-amino]-phenyl}-benzamide]
- remaining at 2 h, 5 µM (in vitro; human, microsomes): 29%
- inhibition at 1 µM (LCK tyrosine kinase): 32%
- pIC50 [1, 3]: 7.36
- pIC50 [1, 4]: 8.32

SMILES: O=C(c1cccc(NC(=O)c2cccc(Cl)n2)c1)c1ccc2c(/C=C/c3ccccc3)n[nH]c2c1 [19(m), 6-[3-(6-chloropyridin-2-ylcarboxamido)benzoyl]-3-E-styryl-1H-indazole]
- % remain (HLM, 2 h) (in vitro; [5]): 61%
- inhibition at 1 µM (LCK tyrosine kinase): 35%
- pIC50 [1, 3]: 7.03
- inhibition at 1 µM (human FGF-R1): 23%

SMILES: O=C(Nc1cccc(C(=O)c2ccc3c(/C=C/c4ccccc4)n[nH]c3c2)c1)c1ccnc(Cl)c1 [19(o), 6-[3-(2-chloropyridin-4-ylcarboxamido)benzoyl]-3-E-styryl-1H-indazole]
- inhibition at 0.05 µM [2]: 89%

SMILES: CNC(=O)c1ccccc1Nc1ccc2c(/C=C/c3ccccn3)n[nH]c2c1 [Example 39(a), 6-[2-(Methylcarbamoyl)phenylanzino]-3-E-[2-(pyridin-2-yl)ethenyl]-1H-indazole]
- % remain (HLM, 2 h) (in vitro; human, microsomes, 2 h, 5 µM): 70%

SMILES: O=CNc1ccccc1/C=C/c1n[nH]c2cc(C(=O)c3cccc(NC(=O)c4ccccc4)c3)ccc12 [Example 43, 6-(3-Benzamidobenzoyl)-3-E-[2-(2-formamidophenyl)ethenyl]-1H-indazole]
- % remain (HLM, 2 h) (in vitro; human, microsomes, 2 h, 5 µM): 2%

SMILES: O=C(c1cccc(NC(=O)c2cccc3[nH]ccc23)c1)c1ccc2c(/C=N/n3cccc3)n[nH]c2c1 [Example 45(a), 6-[3-(Indol-4-ylcarboxamido)benzoyl]-3-E-[N-(pyrrol-1-yl)iminomethyl]-1H-indazole]
- % remain (HLM, 2 h) (in vitro; human, microsomes, 2 h, 5 µM): 97%

SMILES: C#CCNC(=O)c1ccccc1C(=O)c1ccc2c(/C=C/c3ccccn3)n[nH]c2c1 [Example 56]
- inhibition at 0.05 µM [2]: 5%

SMILES: C(=C\c1n[nH]c2cc(-c3cccnc3)ccc12)/c1ccccc1 [Reference Example 27(e), 6-pyridin-3-yl-3-E-styryl-1H-indazole]
- inhibition at 1 µM [2]: 34%

SMILES: C(=C\c1n[nH]c2cc(-c3ccncc3)ccc12)/c1ccccc1 [Reference Example 27(f)]
- inhibition at 1 µM [2]: 49%

SMILES: Oc1ccc(-c2ccc3c(/C=C/c4ccccc4)n[nH]c3c2)cn1 [Reference Example 28(c), 6-(2-hydroxypyridin-5-yl)-3-E-styryl-1H-indazole]
- inhibition at 1 µM [2]: 34%

SMILES: COc1cccc(/C=C/c2n[nH]c3cc(-c4ccncc4)ccc23)c1 [Reference Example 29(e)]
- inhibition at 1 µM [2]: 33%

SMILES: O=C(NCc1cccc(F)c1)c1ccccc1Sc1ccc2c(/C=C/c3ccccn3)n[nH]c2c1 [Reference Example 35(ff)]
- % remain (HLM, 2 h) (in vitro; [5]): 31%
- inhibition at 1 µM (LCK tyrosine kinase): 25%
- pIC50 [1, 3]: 8.24
- inhibition at 1 µM (human FGF-R1): 75%

SMILES: CONC(=O)c1ccccc1Sc1ccc2c(/C=C/c3ccccn3)n[nH]c2c1 [Reference Example 35(r), 6-[2-(methoxycarbamoyl)phenylsulfanyl]-3-E-[2-(pyridin-2-yl)ethenyl]-1H-indazole]
- % remain (HLM, 2 h) (in vitro; [5]): 51%
- inhibition at 1 µM (LCK tyrosine kinase): 16%
- pIC50 [1, 3]: 8.64
- pIC50 [1, 4]: 9.44

SMILES: O=C(Nc1cccc(C(=O)c2ccc3c(/C=C/c4ccccn4)n[nH]c3c2)c1)c1ccncc1 [Reference Example 41(b), 6-[3-(pyridin-4-ylcarboxamido)benzoyl]-3-E-[2-(pyridin-2-yl)ethenyl]-1H-indazole]
- remaining at 2 h, 5 µM (in vitro; human liver microsomes, 5 µM test compound, 37 °C, 2 h, read-out: % remain (HLM, 2 h)): 80%
- inhibition at 1 µM (LCK tyrosine kinase): 24%
- pIC50 [1, 3]: 8.01
- pIC50 [1, 4]: 8.70
- inhibition at 1 µM (human FGF-R1): 31%

SMILES: CC(=O)c1ccc(C(=O)Nc2cccc(C(=O)c3ccc4c(/C=C/c5ccccn5)n[nH]c4c3)c2)s1 [Reference Example 41(e), 6-[3-((5-acetylthien-2-yl)carboxamido)benzoyl]-3-E-[2-(pyridin-2-yl)ethenyl]-1H-indazole]
- % remain (HLM, 2 h) (in vitro; [5]): 22%
- inhibition at 1 µM (LCK tyrosine kinase): 21%
- pIC50 [1, 3]: 8.25
- pIC50 [1, 4]: 9.82
- pIC50 ([1]; + albumin, read-out: HUVEC + albumin IC50): 8.21
- inhibition at 1 µM (human FGF-R1): 31%
